From ChEMBL document CHEMBL3045068, “Effect of methomyl and oxamyl soil applications on early control of nematodes and insects” (Pest Manag Sci, 2011)
≈ marks a conversion by molar mass, not a printed value.

How the values were obtained:
Aphis gossypii = assay: Insecticidal activity against Aphis gossypii (cotton aphid) infested cotton assessed as mortality applied to soil after 5 days; format: functional
Myzus persicae [1] = assay: Insecticidal activity against Myzus persicae (green peach aphid) infested tomato assessed as mortality applied through foliar spray after 5 days; format: functional
Myzus persicae [2] = assay: Insecticidal activity against Myzus persicae (green peach aphid) infested tomato assessed as mortality applied to soil after 5 days; format: functional
Phaseolus lunatus [3] = assay: Phytotoxicity in Phaseolus lunatus (lima bean) root assessed as root dry weight at 0.56 kg ai/ha applied to soil under green house conditions (reference value: 0.36 +/- 0.071 g); format: organism-based; conditions: in vivo, other
Gossypium hirsutum = assay: Phytotoxicity in Gossypium hirsutum (cotton) assessed as concentration required to cause foliar edge burn applied through foliar spray after 4 weeks; format: organism-based; conditions: in vivo, other, 672 h
[4] = system: Frankliniella occidentalis; assay: Insecticidal activity against Frankliniella occidentalis (western flower thrips) infested beans assessed as mortality applied to soil after 7 days; format: functional
Meloidogyne incognita [5] = assay: Nematicidal activity against second juvenile stage of Meloidogyne incognita (root-knot nematode) infected lima bean plant assessed as shoot dry weight at 2 kg ai/ha applied to soil measured up to 7 days post planting under green house conditions (reference value: 1.84 +/- 0.18 g); format: functional
Meloidogyne incognita [6] = assay: Nematicidal activity against second juvenile stage of Meloidogyne incognita (root-knot nematode) infected lima bean plant assessed as shoot dry weight at 1 kg ai/ha applied to soil measured during planting under green house conditions (reference value: 1.84 +/- 0.18 g); format: functional
Meloidogyne incognita [7] = assay: Nematicidal activity against second juvenile stage of Meloidogyne incognita (root-knot nematode) infected lima bean plant assessed as reduction in root gall index at 4 kg ai/ha applied to soil measured up to 14 days post planting under green house conditions (reference value: 7 +/- 0.27%); format: functional
Meloidogyne incognita [8] = assay: Nematicidal activity against second juvenile stage of Meloidogyne incognita (root-knot nematode) infected pea plant assessed as root fresh weight at 3 kg ai/ha applied to soil measured up to 14 days post planting under green house conditions (reference value: 1.83 +/- 0.3 g); format: functional
Meloidogyne incognita [9] = assay: Nematicidal activity against second juvenile stage of Meloidogyne incognita (root-knot nematode) infected pea plant assessed as plant fresh weight at 2 kg ai/ha applied to soil measured up to 7 days post planting under green house conditions (reference value: 4.3 +/- 0.56 g); format: functional
Meloidogyne incognita [10] = assay: Nematicidal activity against second juvenile stage of Meloidogyne incognita (root-knot nematode) infected pea plant assessed as emergence at 2 kg ai/ha applied to soil measured up to 7 days post planting under green house conditions (reference value: 75 +/- 13%); format: functional
Meloidogyne incognita [11] = assay: Nematicidal activity against second juvenile stage of Meloidogyne incognita (root-knot nematode) infected pea plant assessed as reduction in root gall index at 4 kg ai/ha applied to soil measured up to 14 days post planting under green house conditions (reference value: 9.7 +/- 0.30%); format: functional
Meloidogyne incognita [12] = assay: Nematicidal activity against second juvenile stage of Meloidogyne incognita (root-knot nematode) infected pea plant assessed as root fresh weight at 4 kg ai/ha applied to soil measured up to 7 days post planting under green house conditions (reference value: 1.83 +/- 0.3 g); format: functional
Phaseolus lunatus [13] = assay: Phytotoxicity in Phaseolus lunatus (lima bean) plant assessed as plant dry weight at 1.12 kg ai/ha applied to soil under green house conditions (reference value: 1.20 +/- 0.21 g); format: organism-based; conditions: in vivo, other
Meloidogyne incognita [14] = assay: Nematicidal activity against second juvenile stage of Meloidogyne incognita (root-knot nematode) infected pea plant assessed as root fresh weight at 4 kg ai/ha applied to soil measured up to 14 days post planting under green house conditions (reference value: 1.83 +/- 0.3 g); format: functional
Phaseolus lunatus [15] = assay: Phytotoxicity in Phaseolus lunatus (lima bean) plant assessed as emergence at 3.12 kg ai/ha applied to soil measured up to 14 days under green house conditions (reference value: 70 +/- 16%); format: organism-based; conditions: in vivo, other, 336 h
Phaseolus lunatus [16] = assay: Phytotoxicity in Phaseolus lunatus (lima bean) plant assessed as emergence at 1.56 kg ai/ha applied to soil measured up to 7 days under green house conditions (reference value: 70 +/- 16%); format: organism-based; conditions: in vivo, other, 168 h
Pisum sativum [17] = assay: Phytotoxicity in Pisum sativum (pea) assessed as root dry weight at 4 kg ai/ha applied to soil measured up to 7 days post planting at 27 degC under green house conditions (reference value: 0.33 +/- 0.075 g); format: organism-based; conditions: lathyrus oleraceus, in vivo, other, 168 h
Pisum sativum [18] = assay: Phytotoxicity in Pisum sativum (pea) assessed as root dry weight at 2 kg ai/ha applied to soil measured up to 7 days post planting at 27 degC under green house conditions (reference value: 0.33 +/- 0.075 g); format: organism-based; conditions: lathyrus oleraceus, in vivo, other, 168 h
Pisum sativum [19] = assay: Phytotoxicity in Pisum sativum (pea) assessed as plant fresh weight at 2 kg ai/ha applied to soil measured up to 7 days post planting at 19 degC (reference value: 9.4 +/- 0.54 g); format: organism-based; conditions: lathyrus oleraceus, in vivo, other, 168 h
Pisum sativum [20] = assay: Phytotoxicity in Pisum sativum (pea) assessed as plant height at 3 kg ai/ha applied to soil measured up to 14 days post planting at 27 degC under green house conditions (reference value: 9.6 +/- 1.5 cm); format: organism-based; conditions: lathyrus oleraceus, in vivo, other, 336 h
Pisum sativum [21] = assay: Phytotoxicity in Pisum sativum (pea) assessed as emergence at 4 kg ai/ha applied to soil measured up to 7 days post planting at 19 degC relative to untreated control; format: organism-based; conditions: lathyrus oleraceus, in vivo, other, 168 h
Pisum sativum [22] = assay: Phytotoxicity in Pisum sativum (pea) assessed as emergence at 3 kg ai/ha applied to soil measured up to 7 days post planting at 19 degC relative to untreated control; format: organism-based; conditions: lathyrus oleraceus, in vivo, other, 168 h
Pisum sativum [23] = assay: Phytotoxicity in Pisum sativum (pea) assessed as emergence at 3 kg ai/ha applied to soil measured up to 7 days post planting at 27 degC under green house conditions (reference value: 70 +/- 3.3%); format: organism-based; conditions: lathyrus oleraceus, in vivo, other, 168 h
Pisum sativum [24] = assay: Phytotoxicity in Pisum sativum (pea) assessed as emergence at 3 kg ai/ha applied to soil measured up to 14 days post planting at 27 degC under green house conditions (reference value: 70 +/- 3.3%); format: organism-based; conditions: lathyrus oleraceus, in vivo, other, 336 h
Meloidogyne incognita [25] = assay: Nematicidal activity against second juvenile stage of Meloidogyne incognita (root-knot nematode) infected lima bean plant assessed as root dry weight at 3 kg ai/ha applied to soil measured up to 7 days post planting under green house conditions (reference value: 0.5 +/- 0.052 g); format: functional
Meloidogyne incognita [26] = assay: Nematicidal activity against second juvenile stage of Meloidogyne incognita (root-knot nematode) infected lima bean plant assessed as reduction in root gall index at 2 kg ai/ha applied to soil measured during planting under green house conditions (reference value: 7 +/- 0.27%); format: functional
Meloidogyne incognita [27] = assay: Nematicidal activity against second juvenile stage of Meloidogyne incognita (root-knot nematode) infected lima bean plant assessed as reduction in root gall index at 2 kg ai/ha applied to soil measured up to 7 days post planting under green house conditions (reference value: 7 +/- 0.27%); format: functional
Meloidogyne incognita [28] = assay: Nematicidal activity against second juvenile stage of Meloidogyne incognita (root-knot nematode) infected lima bean plant assessed as emergence at 3 kg ai/ha applied to soil measured up to 14 days post planting under green house conditions (reference value: 83 +/- 5%); format: functional

SMILES: CNC(=O)ON=C(C)SC [METHOMYL]
- LC90 (Aphis gossypii): 11 µg/mL (≈ 67.8 µM)
- LC50 (Aphis gossypii; Aphis gossypii, soil, 120 h): 5 µg/mL (≈ 30.8 µM)
- LC90 (Myzus persicae [1]): 44 µg/mL (≈ 271 µM)
- LC50 (Myzus persicae [1]; Myzus persicae, foliar, 120 h): 9 µg/mL (≈ 55.5 µM)
- LC90 (Myzus persicae [2]): 11 µg/mL (≈ 67.8 µM)
- LC50 (Myzus persicae [2]; Myzus persicae, soil, 120 h): 1 µg/mL (≈ 6.16 µM)
- Activity (Phaseolus lunatus [3]): 0.35 g
- Activity (Gossypium hirsutum): 500 µg/mL
- LC90 [4]: 36 µg/mL (≈ 222 µM)
- LC50 ([4]; Frankliniella occidentalis, soil, 168 h): 22 µg/mL (≈ 136 µM)
- Activity (Meloidogyne incognita [5]): 1.83 g
- Activity (Meloidogyne incognita [6]): 1.79 g
- Root_galling_index (Meloidogyne incognita [7]): 0%
- Activity (Meloidogyne incognita [8]): 0.89 g
- Activity (Meloidogyne incognita [9]): 7.1 g
- Activity (Meloidogyne incognita [10]): 50%
- Root_galling_index (Meloidogyne incognita [11]): 0%
- Activity (Meloidogyne incognita [12]): 1.59 g
- Activity (Phaseolus lunatus [13]): 1.51 g
- Activity (Meloidogyne incognita [14]): 1.36 g
- Activity (Phaseolus lunatus [15]): 60%
- Activity (Phaseolus lunatus [16]): 80%
- Activity (Pisum sativum [17]): 0.28 g
- Activity (Pisum sativum [18]): 0.16 g
- Activity (Pisum sativum [19]): 11.6 g
- Activity (Pisum sativum [20]): 9.1 cm
- Activity (Pisum sativum [21]): 100%
- Activity (Pisum sativum [22]): 87%
- Activity (Pisum sativum [23]): 70%
- Activity (Pisum sativum [24]): 80%
- Activity (Meloidogyne incognita [25]): 0.39 g
- Root_galling_index (Meloidogyne incognita [26]): 0%
- Root_galling_index (Meloidogyne incognita [27]): 0%
- Activity (Meloidogyne incognita [28]): 83%
